Measurements published in US5137811A, “Method for diagnosing periodontal diseases with a substrate specific for aminopeptidase activity of periodontopathic bacteria” (Sunstar Kabushiki Kaisha, priority 1986, dated 1992).
Where a SMILES comes first, the peptide text is derived from it. The star is where a group is joined. βNA = c1ccc2cc(N*)ccc2c1; Cbz = O=C(OCc1ccccc1)*

Experiments:
[1] = system: Actinobacillus actinomycetemcomitans; assay: Hydrolytic activity of oral anaerobe cell suspension on aminopeptidase substrates (Experiment 1); format: cell-based; settings: four strains, substrate 0.2 mM, pH 7.0, 37° C., 60 minutes, Table 1
Procedure: (§1) Oral anaerobes, i.e., four strains of Treponema denticola, five strains of B. gingivalis, four strains of Actinobacillus actinomycetemcomitans, four strains of Capnocytophaga sp. and three strains of Fusobacterium nucleatum were tested for hydrolytic activity to the substrate of aminopeptidase enzyme as follows.
(§2) The strains of Treponema were anaerobically cultivated using TYGVS media at 37° C. for 7 days, while other bacterial strains were cultivated using brain heart infusion broth at 37° C. for 48 to 72 hours. Each culture was diluted to obtain a bacterial cell suspension, the absorption at 660 nm of which was 1.0.
(§3) Substrate compounds for aminopeptidase enzyme having various color developing groups derived from β-naphthylamine were dissolved in 0.1M Tris-HCl buffer (pH 7.0) at the concentration of 0.2 mM to obtain substrate solutions.
(§4) To the substrate solution (1.5 ml) was added the above cell suspension (0.3 ml) and reacted at 37° C. for 60 minutes. After completion of the reaction, a coloring reagent [prepared by dissolving diazonium salt of Garnet GBC in 1M acetate buffer (containing 10% Tween 20, pH: 4.2) at the concentration of 0.5 mg/ml] was added and, after 15 minutes, the absorption at 525 nm was determined with a spectrophotometer.
(§5) On the basis of the average amount of released β-naphthylamine in each strain, the hydrolytic activity was expressed as follows: […]

[2] = system: Bacteroides gingivalis; assay: as above; format: cell-based; settings: five strains, substrate 0.2 mM, pH 7.0, 37° C., 60 minutes, Table 1
Procedure: as §1, §2, §3, §4, §5

[3] = system: Capnocytophaga sp.; assay: as above; format: cell-based; settings: four strains, substrate 0.2 mM, pH 7.0, 37° C., 60 minutes, Table 1
Procedure: as §1, §2, §3, §4, §5

[4] = system: Fusobacterium nucleatum; assay: as above; format: cell-based; settings: three strains, substrate 0.2 mM, pH 7.0, 37° C., 60 minutes, Table 1
Procedure: as §1, §2, §3, §4, §5

[5] = system: Treponema denticola; assay: as above; format: cell-based; settings: four strains, substrate 0.2 mM, pH 7.0, 37° C., 60 minutes, Table 1
Procedure: as §1, §2, §3, §4, §5

[6] = system: Actinobacillus actinomycetemcomitans; assay: Hydrolytic activity of cell suspension on aminopeptidase substrates (Experiment 2); format: cell-based; settings: four strains, Table 2
Procedure: as §2, §3, §4, §5
(§6) According to the same manner as described in Experiment 1, periodontopathic bacteria specific aminopeptidase activity was tested by using four strains of Treponema denticola, five strains of B. gingivalis, three strains of B. intermedius, two strains of B. melaninogenicus, two strains of Actinomyces israelli, four strains of Actinobacillus actinomycetemcomitans and three strains of Fusobacterium nucleatum. Abbreviations used in Table 2 mean the following substrate compounds.

[7] = system: Actinomyces israelli; assay: as above; format: cell-based; settings: two strains, Table 2
Procedure: as §2, §3, §4, §5, §6

[8] = system: B. corporis; assay: as above; format: cell-based; settings: Table 2
Procedure: as §2, §3, §4, §5, §6

[9] = system: B. denticola; assay: as above; format: cell-based; settings: Table 2
Procedure: as §2, §3, §4, §5, §6

[10] = system: B. gingivalis; assay: as above; format: cell-based; settings: five strains, Table 2
Procedure: as §2, §3, §4, §5, §6

[11] = system: B. intermedius; assay: as above; format: cell-based; settings: three strains, Table 2
Procedure: as §2, §3, §4, §5, §6

[12] = system: B. melaninogenicus; assay: as above; format: cell-based; settings: two strains, Table 2
Procedure: as §2, §3, §4, §5, §6

[13] = system: Fusobacterium nucleatum; assay: as above; format: cell-based; settings: three strains, Table 2
Procedure: as §2, §3, §4, §5, §6

[14] = system: Treponema denticola; assay: as above; format: cell-based; settings: four strains, Table 2
Procedure: as §2, §3, §4, §5, §6

[15] = system: periodontopathic bacteria specific aminopeptidase activity; assay: Hydrolytic activity of gingival crevicular fluid specimens, visually evaluated (Experiment 5); format: biochemical; set-up: key: -: orange; +: dark orange; ++: brown; +++: dark brown
Procedure: as §3, §4
Specimens of gingival crevicular fluid were collected with paper points from five subjects who were considered to be healthy from their clinical state, six subjects with gingivitis and six subjects with periodontitis. Each specimen was dispersed in Ringer's solution (1.5 ml), and the relative amount of spirochete to total bacteria: [formula] was determined with a phase contrast microscope. Further, the Ringer's solution (0.3 ml) was tested for hydrolytic activity using the substrate solution prepared in the same manner as described in Experiment 1. As substrates, there were used compounds of the formula [1], i.e., N-benzoylvalyl-glycyl-arginine-β-naphthylamide (BzVGR) and N-carbobenzoxy-valyl-glycyl-arginine-β-naphthylamide (CxVGR) were used.
In table 4, hydrolytic activity was visually evaluated and expressed as follows: […]
According to the same manner as described in Experiment 4, hydrolytic activity was tested by using the compounds of the formula [2], i.e., lysyl-proline-β-naphthylamide (KP) and N-carbobenzoxy-prolyl-alanyl-glycylproline-β-naphthylamide (CxPAGP) as the substrates.

Row | Structure (SMILES) | hydrolytic activity (average amount of released β-naphthylamine) [1] | hydrolytic activity (average amount of released β-naphthylamine) [2] | hydrolytic activity (average amount of released β-naphthylamine) [3] | hydrolytic activity (average amount of released β-naphthylamine) [4] | hydrolytic activity (average amount of released β-naphthylamine) [5] | hydrolytic activity (average amount of released β-naphthylamine) [6] | hydrolytic activity (average amount of released β-naphthylamine) [7] | hydrolytic activity (average amount of released β-naphthylamine) [8] | hydrolytic activity (average amount of released β-naphthylamine) [9] | hydrolytic activity (average amount of released β-naphthylamine) [10] | hydrolytic activity (average amount of released β-naphthylamine) [11] | hydrolytic activity (average amount of released β-naphthylamine) [12] | hydrolytic activity (average amount of released β-naphthylamine) [13] | hydrolytic activity (average amount of released β-naphthylamine) [14] | other results
1 | C[C@H](N)C(=O)Nc1ccc2ccccc2c1 [A, alanine-β-naphthylamide, reference compound] | - (release amount<5 nmol/ml) | - (release amount<5 nmol/ml) | +++ (release amount≥40 nmol/ml) | - (release amount<5 nmol/ml) | - (release amount<5 nmol/ml) | - (release amount<5 nmol/ml) | - (release amount<5 nmol/ml) | - (release amount<5 nmol/ml) | - (release amount<5 nmol/ml) | - (release amount<5 nmol/ml) | - (release amount<5 nmol/ml) | - (release amount<5 nmol/ml) | - (release amount<5 nmol/ml) | - (release amount<5 nmol/ml) | 
2 | NCCCC[C@H](N)C(=O)Nc1ccc2ccccc2c1 [K, lysine-β-naphthylamide, reference compound] | - (release amount<5 nmol/ml) | - (release amount<5 nmol/ml) | +++ (release amount≥40 nmol/ml) | - (release amount<5 nmol/ml) | - (release amount<5 nmol/ml) | - (release amount<5 nmol/ml) | - (release amount<5 nmol/ml) | - (release amount<5 nmol/ml) | - (release amount<5 nmol/ml) | - (release amount<5 nmol/ml) | - (release amount<5 nmol/ml) | - (release amount<5 nmol/ml) | - (release amount<5 nmol/ml) | - (release amount<5 nmol/ml) | 
3 | N=C(N)NCCC[C@H](N)C(=O)Nc1ccc2ccccc2c1 [R, arginine-β-naphthylamide, reference compound] | - (release amount<5 nmol/ml) | - (release amount<5 nmol/ml) | +++ (release amount≥40 nmol/ml) | - (release amount<5 nmol/ml) | - (release amount<5 nmol/ml) | - (release amount<5 nmol/ml) | - (release amount<5 nmol/ml) | - (release amount<5 nmol/ml) | - (release amount<5 nmol/ml) | - (release amount<5 nmol/ml) | - (release amount<5 nmol/ml) | - (release amount<5 nmol/ml) | - (release amount<5 nmol/ml) | - (release amount<5 nmol/ml) | 
4 | NCC(=O)Nc1ccc2ccccc2c1 [G, glycine-β-naphthylamide, reference compound] | - (release amount<5 nmol/ml) | - (release amount<5 nmol/ml) | + (10 ≤release amount<20 nmol/ml) | - (release amount<5 nmol/ml) | - (release amount<5 nmol/ml) | - (release amount<5 nmol/ml) | - (release amount<5 nmol/ml) | - (release amount<5 nmol/ml) | - (release amount<5 nmol/ml) | - (release amount<5 nmol/ml) | - (release amount<5 nmol/ml) | - (release amount<5 nmol/ml) | - (release amount<5 nmol/ml) | - (release amount<5 nmol/ml) | 
5 | C[C@H](NC(=O)[C@@H]1CCCN1C(=O)OCc1ccccc1)C(=O)NCC(=O)N1CCC[C@H]1C(=O)Nc1ccc2ccccc2c1 [CxPAGP, N-carbobenzoxy-prolyl-alanyl-glycyl-proline-β-naphthylamide] (Cbz-PAGP-βNA) |  |  |  |  |  | - (release amount<5 nmol/ml) | - (release amount<5 nmol/ml) | ++ (20 ≤release amount<40 nmol/ml) | +++ (release amount≥40 nmol/ml) | + (10 ≤release amount<20 nmol/ml) | +++ (release amount≥40 nmol/ml) | +++ (release amount≥40 nmol/ml) | - (release amount<5 nmol/ml) | +++ (release amount≥40 nmol/ml) | hydrolytic activity, visually evaluated ([15]; Gingivitis subject 1 (spirochete 7.3 %)): +; hydrolytic activity, visually evaluated ([15]; Gingivitis subject 2 (spirochete 16.7 %)): +; hydrolytic activity, visually evaluated ([15]; Gingivitis subject 3 (spirochete 20.5 %)): ++; hydrolytic activity, visually evaluated ([15]; Gingivitis subject 4 (spirochete 6.8 %)): -; hydrolytic activity, visually evaluated ([15]; Gingivitis subject 5 (spirochete 7.3 %)): -; hydrolytic activity, visually evaluated ([15]; Gingivitis subject 6 (spirochete 14.4 %)): +; hydrolytic activity, visually evaluated ([15]; Healthy subject 1 (spirochete 0.1 %)): -; hydrolytic activity, visually evaluated ([15]; Healthy subject 2 (spirochete 2.5 %)): +; hydrolytic activity, visually evaluated ([15]; Healthy subject 3 (spirochete 1.1 %)): -; hydrolytic activity, visually evaluated ([15]; Healthy subject 4 (spirochete 0.6 %)): -; hydrolytic activity, visually evaluated ([15]; Healthy subject 5 (spirochete 1.3 %)): -; hydrolytic activity, visually evaluated ([15]; Periodontitis subject 1 (spirochete 45.2 %)): +++; hydrolytic activity, visually evaluated ([15]; Periodontitis subject 2 (spirochete 30.3 %)): +++; hydrolytic activity, visually evaluated ([15]; Periodontitis subject 3 (spirochete 34.6 %)): +++; hydrolytic activity, visually evaluated ([15]; Periodontitis subject 4 (spirochete 21.2 %)): +++; hydrolytic activity, visually evaluated ([15]; Periodontitis subject 5 (spirochete 40.3 %)): +++; hydrolytic activity, visually evaluated ([15]; Periodontitis subject 6 (spirochete 35.1 %)): +++
